Patent publication US6872712B1, “Cyclic glycerophosphates and analogs thereof” (Yeda Research and Development Co. Ltd., priority 1999, dated 2005)

Experiments:
[1] = system: tyrosine phosphorylated proteins in CHO cells; experiment: Tyrosine phosphorylation in CHO cells (Western blot with anti-phosphotyrosine antibodies); format: cell-based, Chinese hamster; details: CHO cells, 5 μM or 10 μM, 37° C., 1, 3 or 5 mins, monoclonal antibodies; bands about 35, 60-70, 120 and 38 kD (FIG. 4)
Method: Chinese hamster ovary (CHO) cells (Puck, 1985; Gottesman, 1987) and NIH-3T3 cells (NIH), were used in the following experiments. CHO cells were grown at 37° C. in a humidified 5% CO2 atmosphere in 60×15 mm Petri dishes (Falcon) containing F12 medium supplemented with 10% fetal calf serum (FCS) and 2 mM glutamine. When reaching near confluence, the cells were placed under overnight starvation by replacing the medium to F12+2 mM glutamine with 0.1% FCS. The stimulation experiments were performed with cells which were under starvation for 12-18 hours.
(§1) The cyclic phosphates 1,3 cGP, 1,3 cPP, 1,2 cGP, 1,2 cPP, P-1,3 cGP and P-1,3 cPP and the controls αGP and βGP were dissolved in HBSS, or methanol to form stocks of 1 mM or 10 mM. They were diluted into the cell culture medium to a final concentration of up to 20 μM. At the assigned stimulation time (0.5-20 min.) the medium was aspirated under vacuum and the cells were washed 3 times with cold (4° C.) phosphate buffered saline (PBS). […] The protein concentration in each sample, as evaluated by the Bradford assay, was in the range of 1-1.5 mg/ml. […] Bound antibodies were detected by horseradish peroxidase-conjugated anti-rabbit antibodies (Transduction Laboratories, Lexington Ky.) after 2 hours incubation at room temperature, using the conventional ECL detection method. […]

[2] = Stability of cyclic phosphates in PBS / aqueous solution (TLC); format: physicochemical; details: 10 mg/ml in PBS, 37°, up to 24 hours
Method: These possibilities were tested with the 4 cyclic phosphates (1,2 cGP, 1,3 cGP, 1,2 cPP and 1,3 cPPP (see Appendix A) in either aqueous solution or in cell lysates of CHO or NIH-3T3 cells (see Materials and Methods). 10 mg/ml cyclic phosphate in 1 ml of either PBS or PBS mixed with cell lysate (0.1 mg/ml protein) and incubated at 37° for up to 24 hours. Samples were tested at different times by thin layer chromatography on Silica gel 60 with n-propanol, concentrated ammonia, H2O (6:3:1 v/v/v). The Rr values for all 4 cyclic phosphates was in the range of 0.45-0.55 while α-GP and β-GP had Rf=0.14-0.16. This distinct difference allowed the qualitative detection of hydrolysis of the cyclic phosphate.

[3] = Stability of cyclic phosphates in cell lysates (TLC); details: 10 mg/ml in PBS mixed with CHO or NIH-3T3 cell lysate (0.1 mg/ml protein), 37°, up to 24 hours
Description: This distinct difference allowed the qualitative detection of hydrolysis of the cyclic phosphate.

[4] = system: intracellular proteins of target cells (CHO and NIH-3T3 cells); experiment: Phosphorylation of intracellular proteins of target cells (general statements); format: cell-based
Method: In accordance with the invention, the phosphorylating activity of the CGs may be measured by any of the methods known in the art. Generally, following incubation of the CG with the target cells, the cells are lysed, the protein concentration in each sample is determined and the level of phosphorylation of the proteins is determined using known methods and suitable and available polyclonal or monoclonal antibodies. Typically, phosphorylation occurs on the tyrosine residues of the protein and such phosphorylation is determined using either polyclonal or monoclonal anti phosphotyrosine antibodies (such as those described below in the Examples). However, in some cases, phosphorylation occurs on the threonine or serine components of the proteins in which case polyclonal or monoclonal anti phosphothreonine or anti phosphoserine antibodies may be used.
as §1, with “mM.” for “mM. They were diluted into the cell culture medium to a final concentration of up to 20 μM. At the assigned stimulation time (0.5-20 min.) the medium was aspirated under vacuum and the cells were washed 3 times with cold (4° C.) phosphate buffered saline (PBS).”

perforated CHO cells = experiment: Intracellular binding in perforated CHO cells (displacement of 1,3-cP32P); design: species or system Chinese hamster; details: 20 μM 1,3-cP32P, 5 minutes at 4° C., increasing amounts of competitor (FIG. 9)
Method: Radioactivity was scored after 2 washings with PBS at 4° C. as above. […] In this set of experiments the number of displaceable (i.e. specifically bound) ligands was estimated to be in the range of 10^7-10^8 per cell.

insulin receptor = experiment: Tyrosine phosphorylation of the insulin receptor in CHO-T cells; format: cell-based; details: 20 mins
Method: Group 4: 0.1 μM 1,3, cPP only.
Tyrosine phosphorylation was determined using anti-phosphotyrosine antibody (as described above).

cell lysate phosphatases = experiment: Inhibition of phosphatase activity of cell lysate (PNPP substrate); format: biochemical; details: 50 μM, 50 mM PNPP, 90 minutes at 37° C., pH 7.4
Method: Inhibition of phosphatase activity of cell lysate by cyclic phosphates was assayed in 1.0 ml of 50 mM Tris-HCl buffer, pH 7.4, containing 50 mM p-nitrophenyl phosphate, PNPP, as a substrate. Reaction was initiated by the addition of crude cell lysate (100 μg/ml final protein concentration) and terminated after 90 minutes at 37° C. by an addition of 50 μl of 1M NaOH. […] Assays were conducted under the same conditions as above in the presence of 50 μM cyclic phosphate. The enzyme activity in the absence of inhibitor was taken as 100% activity.

CHO cells = experiment: Uptake of 32P labeled 1,3-cPP by CHO cells; format: cell-based, Chinese hamster; details: intact CHO cells, increasing amounts of unlabeled compound
Method: After 2 washings with PBS the cells were disintegrated in 1 M NaOH and radioactivity was scored with a β counter. The insert presents the magnified uptake profile for short incubations (up to 2 minutes) where the intercept (0 time incubation) corresponded to approximately 3×10^6 molecules per cell, while at equilibrium (above 2 hours incubation) incorporation corresponded to approximately 2×10^8 molecules per cell.

[5] = system: estrogen receptor (ER) in human ERmod T47D cells; experiment: Estrogen receptor expression in T47D cells (immunostaining, score 0 to 4); format: cell-based; details: 1 μM, 7 days of incubation (FIG. 11)
Method: Tumor cells were incubated for 7 days in the absence or presence of 1 μM of 1,3 cGP. On each of the noted days, cells were harvested by trypsinization, washed and fixed by dryng in air. The preparations were then peroxidased and protein blocked. Following this, the cells were labeled with first antibody (mouse-anti-human ER) for 30 mins. at room temperature (RT). After washing, cells were incubated with biotinylated second antibody for 10 min at RT. After washing, the cells were incubated with streptavidin conjugated to horse radish peroxidase and color reaction with the DAB reagent was performed. Background staining was done with hematoxylin (mayer) and the fixation process was completed with water, alcohol and finally xylene immersions. The slides were covered, sealed and examined by a pathologist in a blind fashion. Expression of the ER was scored on a scale of 0 to 4 pulses, where 4 pulses is the highest score.

[6] = system: protein kinases of CHO cells (P42 MAPK (ERK 2)); experiment: In-gel kinase assay in the presence of MBP; format: cell-based, Chinese hamster; details: 2 μM for 2 and 5 minutes (FIG. 6)
Method: Phosphorylated cell proteins were separated by SDS-PAGE using a gel that was copolymerized with MBP (0.5 mg/ml) and treated as described (Karunuguran et al., EMBO J. 15:254-264, 1996). After electrophoresis, the gel was fixed with isopropanol and denatured using 6M Urea. Renaturation was achieved by gradual removal of the excess of urea followed by extensive washings in a renaturing buffer (16 h, 4° C.) and in a buffer containing […] HEPES pH 7.6, and 20 mM MgCl2 (30 min, 30° C.). The gel was then subjected to phosphorylation in a buffer containing 20 mM HEPES pH 7.6, 20 mM MgCl2, 2 mM DTT, 20 μM ATP and […] [y^32P]-ATP (30° C. for 120 min). Finally the gel was extensively washed, dried, and subjected to autoradiography.
(§2) The in-gel kinase assay in the presence of MBP was applied as described in Materials and Methods above to detect stimulation of protein kinases by the cyclic phosphates. CHO cells were treated either with medium (0 control), or with 2 μM, α GP or β GP for 2 minutes, 2 μM […] for 2 and 5 minutes and […] 1,3-cPP for 2 minutes after which the cells were lysed and analyzed.

Raf1/MAPK cascade = experiment: Immunoprecipitation kinase assays (Raf-1, MAPK); format: cell-based, Chinese hamster; details: CHO cells, 2 μM for 2 and 5 minutes (FIG. 6)
Method: (§3) (v) Immunoprecipitation kinase assays. Raf-1 Activity was determined by immunoprecipitation with anti-Raf-1 C terminus antibodies (Santa Cruz Biotech, CA) using recombinant MEK1 as a substrate as previously described (Seger, 1994). Mitogen-activated protein kinase (MAPK) activity was determined by immunoprecipitation with anti-ERK2 C terminus antibodies (Santa Cruz Biotech, CA) using MBP as a substrate (Seger, 1994). Jun N-terminal kinase (JNK) activity was determined by purifying the JNK on a GST-Jun (1-97) column followed by phosphorylation (Hibi, 1993).
as §2
(§4) Their apparent molecular weights were around MW of 35-40, 55 and 62 kD. The 35-40 kD protein kinase which was activated by 1,3-cGP (E) could be assigned to the P42 MAPK (ERK 2). In addition, cells were treated as described above and then subjected to Raf-1, MAPK and IP kinase assays and these are presented in the first and second rows of FIG. 6. In parallel, JNK assay was performed (third row, […]).

[7] = system: Jun N-terminal kinase (JNK); experiment: JNK assay (GST-Jun substrate); format: cell-based, Chinese hamster; details: CHO cells, 2 μM for 2 and 5 minutes (FIG. 6)
Method: as §3, §4

Which results are given for `CC1COP(=O)(O)O1` (stereo not drawn) [1,2 cPP, 1,2 cyclic propanediol phosphate]?
kinetics of tyrosine phosphorylation [1]: enhanced tyrosine phosphorylation; hydrolysis to the linear form in PBS [2]: No hydrolysis; hydrolysis to the linear form by cell lysate [3]: No hydrolysis

For `O=P(O)(O)OC(CO)CO` [βGP, β-Glycerophosphate], which “level of phosphorylation in intracellular proteins after extracellular application” value [4] is on record?
Its value is “lack this activity”.

Which results are given for `O=P1(O)OCC(CO)O1` (stereo not drawn) [1,2 cGP, 1,2 cyclic glycerophosphate]?
hydrolysis to the linear form in PBS [2]: No hydrolysis; hydrolysis to the linear form by cell lysate [3]: No hydrolysis

With `O=P(O)(O)OCC(O)CO` (stereo in doubt) [αGP, L-α-glycerophosphate, reference compound] as the compound, how does the “displacement of 1,3-cP32P in perforated CHO cells” value (perforated CHO cells) read?
Its value is “ineffective”.

What about the “level of phosphorylation in intracellular proteins after extracellular application” value [4] of the same compound?
Its value is “lack this activity”.

For “insulin: hormone; binding to its receptor results in tyrosine phosphorylation of 117 kD and 200 kD receptor proteins”, which “phosphorylation of the insulin receptors” value (insulin receptor; 0.1 nM insulin) is on record?
The value was “partial phosphorylation”.

What about the “phosphorylation of the insulin receptors” value (insulin receptor; 1 nM insulin) of the same compound?
The value was “maximal phosphorylation”.

Which “hydrolysis to the linear form in PBS” value [2] does the source give for `O=P1(O)OCC(O)CO1` (stereo not drawn) [1,3 cGP, 1,3 cyclic glycerophosphate] here?
Its value is “No hydrolysis”.

And the “inhibition of cell lysate phosphatase activity” value (cell lysate phosphatases)?
The value was “approximately 10%”.

And the “effect of unlabeled competitor on the uptake profile of 1,3-cP32P” value (CHO cells)?
The value was “remained essentially unaltered”.

What about the “displacement of 1,3-cP32P in perforated CHO cells” value (perforated CHO cells) of the same compound?
Its value is “clear binding competition”.

What about the “level of expression of estrogen receptor (ER) versus growth medium alone” value [5] of the same compound?
The value was “increases”.

What about the “level of expression of estrogen receptor (ER) versus growth medium alone” value ([5]; listed as 1,3, cGP) of the same compound?
Its value is “significantly higher”.

What about the “hydrolysis to the linear form by cell lysate” value [3] of the same compound?
The value was “No hydrolysis”.

With `O=P1(O)OCC(O)CO1` (stereo not drawn) [1,3 cGP(E)] as the compound, how does the “stimulation of 35-40 kD protein kinase (P42 MAPK, ERK 2)” value [6] read?
Its value is “activated”.

And the “activation of the Raf1/MAPK cascade” value (Raf1/MAPK cascade)?
The value was no more than 5 fold.

What about the “effect on the JNK pathway” value [7] of the same compound?
The value was “unaffected”.

And the “inhibition of the lysate phosphatases (in words)” value (cell lysate phosphatases)?
Its value is “limited inhibition”.
